Assay results as given in ChEMBL document CHEMBL2016514, “Homobivalent ligands of the atypical antipsychotic clozapine: design, synthesis, and pharmacological evaluation” (J Med Chem, 2012).

Each molecule was assayed against T1, D(2) dopamine receptor (Homo sapiens, UniProt P14416) (assay: Inhibition of human dopamine D2L receptor expressed in intact CHO FlpIn cells assessed as inhibition of receptor-mediated mediated ERK1/2 phosphorylation by Alpha-Screen plate-based assay). Settings: cho.
Type: cell-based

T1 sequence (P14416 whole entry): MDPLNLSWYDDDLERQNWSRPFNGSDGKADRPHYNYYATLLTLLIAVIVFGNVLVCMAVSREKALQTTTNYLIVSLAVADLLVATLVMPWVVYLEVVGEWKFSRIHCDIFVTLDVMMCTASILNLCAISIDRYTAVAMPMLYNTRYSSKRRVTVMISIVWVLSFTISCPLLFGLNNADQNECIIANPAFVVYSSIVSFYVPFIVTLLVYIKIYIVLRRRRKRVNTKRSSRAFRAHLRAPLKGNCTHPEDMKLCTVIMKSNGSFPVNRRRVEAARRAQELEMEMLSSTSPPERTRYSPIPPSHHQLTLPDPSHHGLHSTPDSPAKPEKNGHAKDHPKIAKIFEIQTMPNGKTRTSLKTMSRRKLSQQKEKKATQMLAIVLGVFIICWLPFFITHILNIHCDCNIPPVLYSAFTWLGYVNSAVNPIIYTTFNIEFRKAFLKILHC

Compound | pIC50
CN1CCN(C2=Nc3cc(Cl)ccc3N(NC(=O)CCCCCCCCCCC(=O)NN3c4ccc(Cl)cc4N=C(N4CCN(C)CC4)c4ccccc43)c3ccccc32)CC1 | < 5
CN1CCN(C2=Nc3cc(Cl)ccc3N(C(=O)CCCCCCCCCCCCC(=O)N3c4ccc(Cl)cc4N=C(N4CCN(C)CC4)c4ccccc43)c3ccccc32)CC1 | < 5
CN1CCN(C2=Nc3cc(Cl)ccc3N(NC(=O)CCCCCCCCCCCCC(=O)NN3c4ccc(Cl)cc4N=C(N4CCN(C)CC4)c4ccccc43)c3ccccc32)CC1 | < 5
CN1CCN(C2=Nc3cc(Cl)ccc3N(C(=O)CCCCCCCCC(=O)N3c4ccc(Cl)cc4N=C(N4CCN(C)CC4)c4ccccc43)c3ccccc32)CC1 | < 5
CN1CCN(C2=Nc3cc(Cl)ccc3N(C(=O)CCCCCCCCCCC(=O)N3c4ccc(Cl)cc4N=C(N4CCN(C)CC4)c4ccccc43)c3ccccc32)CC1 | < 5
CN1CCN(C2=Nc3cc(Cl)ccc3N(NC(=O)CCCCCCCCC(=O)NN3c4ccc(Cl)cc4N=C(N4CCN(C)CC4)c4ccccc43)c3ccccc32)CC1 | < 5

Next, values leading:

pIC50 | Compound
< 5 | CN1CCN(C2=Nc3cc(Cl)ccc3N(NC(=O)CCCCCCCCCCCCCCCCCCC(=O)NN3c4ccc(Cl)cc4N=C(N4CCN(C)CC4)c4ccccc43)c3ccccc32)CC1
< 5 | CN1CCN(C2=Nc3cc(Cl)ccc3N(NC(=O)CCCCCCCCCCCCCCCCC(=O)NN3c4ccc(Cl)cc4N=C(N4CCN(C)CC4)c4ccccc43)c3ccccc32)CC1
< 5 | CN1CCN(C2=Nc3cc(Cl)ccc3N(C(=O)CCCCCCCCCCCCCCCCCCC(=O)N3c4ccc(Cl)cc4N=C(N4CCN(C)CC4)c4ccccc43)c3ccccc32)CC1
< 5 | CN1CCN(C2=Nc3cc(Cl)ccc3N(C(=O)CCCCCCCCCCCCCCCCC(=O)N3c4ccc(Cl)cc4N=C(N4CCN(C)CC4)c4ccccc43)c3ccccc32)CC1

Same assay, conditions: cho; read-out: IC50

IC50 [µM] | Compound
> 10 | O=C(CCCCCCCCCCCCCCCCCCC(=O)NCCCN1CCN(C2=Nc3cc(Cl)ccc3Nc3ccccc32)CC1)NCCCN1CCN(C2=Nc3cc(Cl)ccc3Nc3ccccc32)CC1

Same assay, conditions: read-out: IC50

Compound | IC50 [µM]
CN1CCN(C2=Nc3cc(Cl)ccc3N(NC(=O)CCCCCCCCCCC(=O)NN3c4ccc(Cl)cc4N=C(N4CCN(C)CC4)c4ccccc43)c3ccccc32)CC1 | > 10
CN1CCN(C2=Nc3cc(Cl)ccc3N(NC(=O)CCCCC(=O)NN3c4ccc(Cl)cc4N=C(N4CCN(C)CC4)c4ccccc43)c3ccccc32)CC1 | 2.08
CN1CCN(C2=Nc3cc(Cl)ccc3N(C(=O)CCCCCCC(=O)N3c4ccc(Cl)cc4N=C(N4CCN(C)CC4)c4ccccc43)c3ccccc32)CC1 | 2.66
CN1CCN(C2=Nc3cc(Cl)ccc3N(NC(=O)CCCCCCC(=O)NN3c4ccc(Cl)cc4N=C(N4CCN(C)CC4)c4ccccc43)c3ccccc32)CC1 | 2.44
CN1CCN(C2=Nc3cc(Cl)ccc3N(C(=O)CCCCCCCCCCCCC(=O)N3c4ccc(Cl)cc4N=C(N4CCN(C)CC4)c4ccccc43)c3ccccc32)CC1 | > 10
CN1CCN(C2=Nc3cc(Cl)ccc3N(NC(=O)CCC(=O)OCCOC(=O)CCC(=O)NN3c4ccc(Cl)cc4N=C(N4CCN(C)CC4)c4ccccc43)c3ccccc32)CC1 | 2.41
CCCCCCCCCC(=O)NCCCN1CCN(C2=Nc3cc(Cl)ccc3Nc3ccccc32)CC1 | 1.46
CN1CCN(C2=Nc3cc(Cl)ccc3N(NC(=O)CCCCCCCCCCCCC(=O)NN3c4ccc(Cl)cc4N=C(N4CCN(C)CC4)c4ccccc43)c3ccccc32)CC1 | > 10
CN1CCN(C2=Nc3cc(Cl)ccc3N(C(=O)CCCCCCCCC(=O)N3c4ccc(Cl)cc4N=C(N4CCN(C)CC4)c4ccccc43)c3ccccc32)CC1 | > 10
CCCCCCCCCC(=O)NN1c2ccc(Cl)cc2N=C(N2CCN(C)CC2)c2ccccc21 | 8.94
CN1CCN(C2=Nc3cc(Cl)ccc3N(NC(=O)CCC(=O)N3CCN(C(=O)CCC(=O)NN4c5ccc(Cl)cc5N=C(N5CCN(C)CC5)c5ccccc54)CC3)c3ccccc32)CC1 | 1.62
CN1CCN(C2=Nc3cc(Cl)ccc3N(C(=O)CCCCCCCCCCC(=O)N3c4ccc(Cl)cc4N=C(N4CCN(C)CC4)c4ccccc43)c3ccccc32)CC1 | > 10
CCCCCCCCCC(=O)N1c2ccc(Cl)cc2N=C(N2CCN(C)CC2)c2ccccc21 | 0.776
CN1CCN(C2=Nc3cc(Cl)ccc3N(NC(=O)CCCCCCCCC(=O)NN3c4ccc(Cl)cc4N=C(N4CCN(C)CC4)c4ccccc43)c3ccccc32)CC1 | > 10
CN1CCN(C2=Nc3cc(Cl)ccc3N(NC(=O)CCCC(=O)N3CCN(C(=O)CCCC(=O)NN4c5ccc(Cl)cc5N=C(N5CCN(C)CC5)c5ccccc54)CC3)c3ccccc32)CC1 | 2.63

The next lines start with the values.

IC50 [µM] | Compound
11 | O=C(CCCCCCCCCCCCC(=O)NCCCN1CCN(C2=Nc3cc(Cl)ccc3Nc3ccccc32)CC1)NCCCN1CCN(C2=Nc3cc(Cl)ccc3Nc3ccccc32)CC1
> 10 | CN1CCN(C2=Nc3cc(Cl)ccc3N(NC(=O)CCCCCCCCCCCCCCCCCCC(=O)NN3c4ccc(Cl)cc4N=C(N4CCN(C)CC4)c4ccccc43)c3ccccc32)CC1
0.044 | O=C(CCCCCCCCC(=O)NCCCN1CCN(C2=Nc3cc(Cl)ccc3Nc3ccccc32)CC1)NCCCN1CCN(C2=Nc3cc(Cl)ccc3Nc3ccccc32)CC1
1.12 | O=C(CCCCCCCCCCC(=O)NCCCN1CCN(C2=Nc3cc(Cl)ccc3Nc3ccccc32)CC1)NCCCN1CCN(C2=Nc3cc(Cl)ccc3Nc3ccccc32)CC1
0.023 | O=C(CCCCCCC(=O)NCCCN1CCN(C2=Nc3cc(Cl)ccc3Nc3ccccc32)CC1)NCCCN1CCN(C2=Nc3cc(Cl)ccc3Nc3ccccc32)CC1
> 10 | CN1CCN(C2=Nc3cc(Cl)ccc3N(NC(=O)CCCCCCCCCCCCCCCCC(=O)NN3c4ccc(Cl)cc4N=C(N4CCN(C)CC4)c4ccccc43)c3ccccc32)CC1
> 10 | CN1CCN(C2=Nc3cc(Cl)ccc3N(C(=O)CCCCCCCCCCCCCCCCCCC(=O)N3c4ccc(Cl)cc4N=C(N4CCN(C)CC4)c4ccccc43)c3ccccc32)CC1
7.8 | O=C(CCCCCCCCCCCCCCCCC(=O)NCCCN1CCN(C2=Nc3cc(Cl)ccc3Nc3ccccc32)CC1)NCCCN1CCN(C2=Nc3cc(Cl)ccc3Nc3ccccc32)CC1
> 10 | CN1CCN(C2=Nc3cc(Cl)ccc3N(C(=O)CCCCCCCCCCCCCCCCC(=O)N3c4ccc(Cl)cc4N=C(N4CCN(C)CC4)c4ccccc43)c3ccccc32)CC1
0.087 | O=C(CCCCC(=O)NCCCN1CCN(C2=Nc3cc(Cl)ccc3Nc3ccccc32)CC1)NCCCN1CCN(C2=Nc3cc(Cl)ccc3Nc3ccccc32)CC1

Same assay, conditions: read-out: pIC50 (converted)

Compound | IC50 [µM]
CN1CCN(C2=Nc3cc(Cl)ccc3N(NC(=O)CCCCC(=O)NN3c4ccc(Cl)cc4N=C(N4CCN(C)CC4)c4ccccc43)c3ccccc32)CC1 | 2.04
CN1CCN(C2=Nc3cc(Cl)ccc3N(C(=O)CCCCCCC(=O)N3c4ccc(Cl)cc4N=C(N4CCN(C)CC4)c4ccccc43)c3ccccc32)CC1 | 1.78

Continued, values first:

IC50 [µM] | Compound
1.1 | O=C(CCCCCCCCCCC(=O)NCCCN1CCN(C2=Nc3cc(Cl)ccc3Nc3ccccc32)CC1)NCCCN1CCN(C2=Nc3cc(Cl)ccc3Nc3ccccc32)CC1
> 10 | O=C(CCCCCCCCCCCCCCCCCCC(=O)NCCCN1CCN(C2=Nc3cc(Cl)ccc3Nc3ccccc32)CC1)NCCCN1CCN(C2=Nc3cc(Cl)ccc3Nc3ccccc32)CC1

Each molecule was assayed against T1, D(2) dopamine receptor (assay: Displacement of [3H]-spiperone from human dopamine D2L receptor expressed in CHO FlpIn cell membrane measured after 3 hrs by topcount scintillation counting). Settings: read-out: Ki.

Ki [µM] | Compound
0.0091 | CCCCCCCCCC(=O)NCCCN1CCN(C2=Nc3cc(Cl)ccc3Nc3ccccc32)CC1
0.00135 | O=C(CCCCCCCCC(=O)NCCCN1CCN(C2=Nc3cc(Cl)ccc3Nc3ccccc32)CC1)NCCCN1CCN(C2=Nc3cc(Cl)ccc3Nc3ccccc32)CC1
0.00141 | O=C(CCCCCCC(=O)NCCCN1CCN(C2=Nc3cc(Cl)ccc3Nc3ccccc32)CC1)NCCCN1CCN(C2=Nc3cc(Cl)ccc3Nc3ccccc32)CC1
0.269 | O=C(CCCCCCCCCCCCCCCCC(=O)NCCCN1CCN(C2=Nc3cc(Cl)ccc3Nc3ccccc32)CC1)NCCCN1CCN(C2=Nc3cc(Cl)ccc3Nc3ccccc32)CC1
0.0036 | O=C(CCCCC(=O)NCCCN1CCN(C2=Nc3cc(Cl)ccc3Nc3ccccc32)CC1)NCCCN1CCN(C2=Nc3cc(Cl)ccc3Nc3ccccc32)CC1

Same assay, conditions: read-out: pKi (converted)

Ki [µM] | Compound
0.00891 | CCCCCCCCCC(=O)NCCCN1CCN(C2=Nc3cc(Cl)ccc3Nc3ccccc32)CC1
0.00123 | O=C(CCCCCCCCC(=O)NCCCN1CCN(C2=Nc3cc(Cl)ccc3Nc3ccccc32)CC1)NCCCN1CCN(C2=Nc3cc(Cl)ccc3Nc3ccccc32)CC1
0.00135 | O=C(CCCCCCC(=O)NCCCN1CCN(C2=Nc3cc(Cl)ccc3Nc3ccccc32)CC1)NCCCN1CCN(C2=Nc3cc(Cl)ccc3Nc3ccccc32)CC1
0.245 | O=C(CCCCCCCCCCCCCCCCC(=O)NCCCN1CCN(C2=Nc3cc(Cl)ccc3Nc3ccccc32)CC1)NCCCN1CCN(C2=Nc3cc(Cl)ccc3Nc3ccccc32)CC1
0.00316 | O=C(CCCCC(=O)NCCCN1CCN(C2=Nc3cc(Cl)ccc3Nc3ccccc32)CC1)NCCCN1CCN(C2=Nc3cc(Cl)ccc3Nc3ccccc32)CC1
